Data as given in patent US20170114128A1, “USE OF TGF-BETA ANTAGONISTS OF TREAT TYPE-2 DIABETES” (ALBERT EINSTEIN COLLEGE OF MEDICINE, INC., priority 2014, published 2017).

Tests used:
normal C57BL/6 mice = test: Hyperinsulinemic-euglycemic clamp after third-ventricle TGF-β1; assay type: in vivo
Text: Brain TGF-β excess increases hepatic glucose production: In physiology, blood glucose levels are balanced by glucose uptake in metabolic tissues (such as muscles) and glucose production in the liver. A hyperinsulinemic-euglycemic clamp was employed to analyze if any of these metabolic processes was relevant to the pro-diabetic effect of brain TGF-β excess. In the experiment, normal C57BL/6 mice were pre-implanted with a catheter into the jugular vein and also a cannula into the hypothalamic third ventricle. Following surgical recovery, overnight-fasted mice were injected with TGF-β1 (4 ng) using the same protocol as described in FIG. 1e, and were subjected to the clamp procedure. During the clamp period, blood glucose concentrations were maintained at approximate 120-130 mg/dl, with steady insulin infusion (4 mU kg^−1 min^−1) together with various rates of 20% glucose infusion to maintain euglycemia. […] While the basal blood insulin concentrations in TGF-β-injected mice were higher which indicated insulin resistance, constant insulin infusion in the clamp elevated the blood insulin concentrations of these mice and controls to similar levels. […] Blood glucagon concentrations were similar between TGF-β1-treated mice and controls. Therefore, the brain-liver axis mediates the pro-diabetic effect of brain TGF-β excess.
Hyperinsulinemic-euglycemic clamp. Mice that were pre-implanted with cannula in the third ventricle were anesthetized, and a catheter was inserted into the right jugular vein and crossed over from the underneath and out the back of the neck. Following surgical recovery, overnight-fasted mice were injected with TGF-β1 (4 ng) vs. vehicle, once at the beginning of fasting and the other in the following morning at four hours prior to clamp. Conscious mice were then subjected to euglycemic clamp, with the blood glucose concentrations maintained at 120-130 mg/dl for four hours, followed by steady-state human insulin infusion (4 mU kg−1 min−1) together with infusion of 20% glucose at variable rates to maintain euglycemia. During the final 1 hour of the clamp, [3-^3H] glucose and 2-deoxy-D-[1-^14C] glucose (PerkinElmer) infusions were used. Blood samples were collected from tail vein. At the end of the procedure, mice were euthanized, and various tissues were removed and quickly frozen in liquid nitrogen. Plasma insulin and glucagon concentrations were analyzed with ELISA kits (Crystal Chem. and R&D Systems).

hypothalamic GT1-7 cells = test: IκBα mRNA levels in GT1-7 cells after TGF-β1 treatment; assay type: cell-based; settings: GT1-7 cells, TGF-β1 10 ng/ml
Text: (§1) TGF-β degrades IκBα mRNA to atypically activate NF-κB: RNA SGs/PBs have the function to degrade mRNAs by targeting the AU-rich element (AUE) at the 3′ untranslated region (UTR) (36-38). […] This information led to the suspicion that TGF-β could work to degrade IκBα mRNA. […] To test if TGF-β induced IκBα mRNA decay is accountable for the glucose metabolism disorder, an experiment was designed to study if the pro-diabetic effect of brain TGF-β excess could be reversed through directly increasing hypothalamic IκBα mRNA. Using an approach which was established previously (23), a lentiviral system was employed to deliver exogenous Iκbα mRNA into the mediobasal hypothalamus of chow-fed C57BL/6 mice, and indeed, this lentivirus-delivered Iκbα mRNA prevented TGF-β1 injection from activating hypothalamic NF-κB (FIG. 5f). Metabolic analysis confirmed that this treatment attenuated the effect of TGF-β1 from impairing insulin-dependent glucose control (FIG. 5g).
Cell culture. GT1-7 cells were cultured as described previously (14). Briefly, GT1-7 cells were maintained in Dulbecco's Modified Eagle's Medium (Invitrogen) with 10% fetal bovine serum (Hyclone) and penicillin/streptomycin (Invitrogen), at 37° C. in a humidified atmosphere containing 5% CO2. Cells were fasted in serum-free medium for an overnight period, and then were subjected to TGF-β1 treatment at the indicated dose and time course.

HEK 293 cells = test: IκBα mRNA levels in HEK 293 cells after TGF-β1 treatment; assay type: cell-based; settings: HEK 293 cells (data not shown)
Text: as §1

TGF-β1: transforming growth factor-β1 (Sigma), cytokine dissolved in artificial cerebrospinal fluid for third-ventricle injection
glucose infusion rate, lower than vehicle-injected mice (normal C57BL/6 mice; 4 ng, clamp, insulin 4 mU kg^−1 min^−1, on average): 80%
hepatic glucose production vs control (normal C57BL/6 mice; basal condition): higher
basal blood insulin concentrations (normal C57BL/6 mice; basal, vs controls): higher
rates of glucose disposal vs vehicle (normal C57BL/6 mice; clamp, 4 ng): similar
suppression of hepatic glucose production by insulin infusion (normal C57BL/6 mice; during clamp): failed to do so
blood glucagon concentrations vs controls (normal C57BL/6 mice; mouse, in vivo): similar
glucose infusion rates vs vehicle-injected mice (normal C57BL/6 mice; since the first 20 min of clamp): significantly lower
IκBα mRNA levels (hypothalamic GT1-7 cells): notably decreased
IκBα mRNA levels (HEK 293 cells): notably decreased
